Key:
[1] = target: Mu-type opioid receptor (Cavia porcellus, UniProt P97266); assay: Binding affinity against opioid receptor mu 1 using [3H]DAMGO as radioligand in guinea pig brain membranes.; format: cell membranes
[2] = target: Kappa-type opioid receptor (Cavia porcellus, UniProt P41144); assay: Binding affinity against opioid receptor kappa 1 using [3H]-U-69,593 as radioligand in guinea pig brain membranes.; format: cell membranes
[3] = target: Opioid receptors; delta & kappa (UniProt P41145+P41143); assay: Selectivity ratio expressed as Ki of delta opioid receptor to that of kappa opioid receptor.; format: protein assay; details: Cavia porcellus
[4] = test system: Opioid receptors; mu & delta; assay: Selectivity ratio expressed as Ki of delta opioid receptor to that of mu opioid receptor.; format: protein assay; details: Cavia porcellus

Opioid receptors; delta & kappa, sequence (P41143 whole entry, looked up): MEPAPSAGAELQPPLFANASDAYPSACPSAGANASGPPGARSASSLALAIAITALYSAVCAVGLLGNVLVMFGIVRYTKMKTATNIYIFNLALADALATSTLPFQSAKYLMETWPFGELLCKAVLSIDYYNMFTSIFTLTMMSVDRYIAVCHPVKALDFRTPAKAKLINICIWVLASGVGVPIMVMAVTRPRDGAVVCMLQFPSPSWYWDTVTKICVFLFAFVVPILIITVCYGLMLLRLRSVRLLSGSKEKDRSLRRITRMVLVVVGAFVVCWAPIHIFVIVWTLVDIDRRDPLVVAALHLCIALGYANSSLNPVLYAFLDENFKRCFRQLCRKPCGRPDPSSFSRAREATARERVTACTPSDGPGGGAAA
Opioid receptors; delta & kappa, sequence (P41145 whole entry, looked up): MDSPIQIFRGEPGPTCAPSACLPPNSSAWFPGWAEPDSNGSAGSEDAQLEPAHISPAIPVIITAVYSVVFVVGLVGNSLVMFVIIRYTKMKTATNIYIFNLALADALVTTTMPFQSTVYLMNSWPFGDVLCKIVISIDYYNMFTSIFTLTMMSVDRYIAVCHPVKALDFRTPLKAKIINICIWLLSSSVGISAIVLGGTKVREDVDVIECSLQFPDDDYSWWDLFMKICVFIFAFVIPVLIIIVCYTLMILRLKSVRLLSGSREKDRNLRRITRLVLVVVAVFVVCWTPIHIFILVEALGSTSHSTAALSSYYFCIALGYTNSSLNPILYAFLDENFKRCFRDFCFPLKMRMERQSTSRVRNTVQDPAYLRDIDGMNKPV
Kappa-type opioid receptor, sequence (P41144 whole entry): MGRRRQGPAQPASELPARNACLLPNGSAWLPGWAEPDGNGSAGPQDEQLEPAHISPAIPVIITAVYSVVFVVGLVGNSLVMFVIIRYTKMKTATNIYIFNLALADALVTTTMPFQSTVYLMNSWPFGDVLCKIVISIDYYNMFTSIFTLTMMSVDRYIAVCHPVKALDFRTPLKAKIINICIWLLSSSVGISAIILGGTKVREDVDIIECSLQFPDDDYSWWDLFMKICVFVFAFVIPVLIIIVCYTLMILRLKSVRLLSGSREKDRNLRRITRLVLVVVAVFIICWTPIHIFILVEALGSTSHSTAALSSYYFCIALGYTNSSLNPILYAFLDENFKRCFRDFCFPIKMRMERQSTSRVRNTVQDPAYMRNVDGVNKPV
Mu-type opioid receptor, sequence (P97266 whole entry): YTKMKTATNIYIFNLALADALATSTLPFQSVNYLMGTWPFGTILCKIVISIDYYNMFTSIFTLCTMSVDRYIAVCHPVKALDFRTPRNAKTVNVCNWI

O=C1c2ccc(O)cc2[C@@]23CCCC[C@H]2[C@@H]1N(CCc1ccccc1)CC3
Ki [1]: 0.63 nM
Ki [2]: 7.7 nM
Selectivity [3]: 1.3
Selectivity [4]: 15

CN1CC[C@]23CCCC[C@H]2[C@H]1Cc1ccc(O)cc13
Selectivity [3]: 1.8
Selectivity [4]: 20

O=C1c2ccc(-c3nn[nH]n3)cc2[C@@]23CCCC[C@H]2[C@@H]1N(CC1CCC1)CC3
Selectivity [3]: 5
Selectivity [4]: 7.8

NCc1ccc2c(c1)[C@@]13CCCC[C@H]1[C@@H](C2)N(CC1CCC1)CC3
Ki [1]: 8.5 nM
Ki [2]: 8.6 nM
Selectivity [3]: 48
Selectivity [4]: 48

C#CCN1CC[C@]23CCCC[C@H]2[C@H]1C(=O)c1ccc(O)cc13
Ki [1]: 190 nM
Ki [2]: 60 nM
Selectivity [3]: 38
Selectivity [4]: 12

O=C1c2ccc(O)cc2[C@@]23CCCC[C@H]2[C@@H]1N(CCCF)CC3
Ki [1]: 20 nM
Ki [2]: 2.5 nM

c1cc2c(cc1-c1nn[nH]n1)[C@@]13CCCC[C@H]1[C@@H](C2)N(CC1CCC1)CC3
Selectivity [3]: > 12
Selectivity [4]: > 9

CN1CC[C@]23CCCC[C@H]2[C@H]1Cc1ccc(N)cc13
Ki [1]: 7.9 nM
Ki [2]: 110 nM
Selectivity [3]: 14
Selectivity [4]: 190

O=C1c2ccc(O)cc2[C@@]23CCCC[C@H]2[C@@H]1N(CC1CCC1)CC3
Ki [1]: 3.3 nM
Ki [2]: 0.48 nM
Selectivity [3]: 540
Selectivity [4]: 79

O=C1c2ccc(O)cc2[C@@]23CCCC[C@H]2[C@@H]1N(CCF)CC3
Ki [1]: 560 nM
Ki [2]: 250 nM
Selectivity [3]: > 40
Selectivity [4]: > 18

O=C1c2ccc(OCC3CCC3)cc2[C@@]23CCCC[C@H]2[C@@H]1N(CC1CCC1)CC3
Ki [1]: 800 nM
Ki [2]: 290 nM
Selectivity [3]: 35
Selectivity [4]: > 12

CN1CC[C@]23CCCC[C@H]2[C@H]1C(=O)c1ccc(O)cc13
Ki [1]: 21 nM
Ki [2]: 47 nM
Selectivity [3]: 26
Selectivity [4]: 57

N#Cc1ccc2c(c1)[C@@]13CCCC[C@H]1[C@@H](C2)N(CC1CCC1)CC3
Ki [1]: 37 nM
Ki [2]: 6 nM
Selectivity [3]: 320
Selectivity [4]: 51

O=C(Nc1ccc2c(c1)[C@@]13CCCC[C@H]1[C@@H](C2=O)N(CC1CCC1)CC3)c1ccccc1
Ki [1]: 4.4 nM
Ki [2]: 7.7 nM
Selectivity [3]: 49
Selectivity [4]: 86

CN1CC[C@]23CCCC[C@H]2[C@H]1Cc1ccc(-c2nn[nH]n2)cc13
Selectivity [3]: > 26
Selectivity [4]: > 26

Nc1ccc2c(c1)[C@@]13CCCC[C@H]1[C@@H](C2)N(CC1CCC1)CC3
Ki [1]: 3.7 nM
Ki [2]: 1.8 nM
Selectivity [3]: 100
Selectivity [4]: 49

O=C1c2ccc(O)cc2[C@@]23CCCC[C@H]2[C@@H]1N(Cc1ccc2ccccc2c1)CC3
Ki [1]: 2200 nM
Ki [2]: 780 nM
Selectivity [3]: > 13
Selectivity [4]: > 4.5

Oc1ccc2c(c1)[C@@]13CCCC[C@H]1[C@@H](C2)N(CC1CCC1)CC3 [BUTORPHAN]
Ki [2]: 0.079 nM
Selectivity [3]: 75
Selectivity [4]: 26

O=C1c2ccc(O)cc2[C@@]23CCCC[C@H]2[C@@H]1NCC3
Ki [1]: 20 nM
Ki [2]: 25 nM
Selectivity [3]: > 400
Selectivity [4]: > 500

N#Cc1ccc2c(c1)[C@@]13CCCC[C@H]1[C@@H](C2=O)N(CC1CCC1)CC3
Ki [2]: 400 nM

c1cc2c(cc1-c1nnn[nH]1)[C@@]13CCCC[C@H]1[C@@H](C2)N(CC1CCC1)CC3
Ki [1]: 1100 nM
Ki [2]: 850 nM

CC(C)=CCN1CC[C@]23CCCC[C@H]2[C@H]1C(=O)c1ccc(O)cc13
Ki [1]: 19 nM
Ki [2]: 7.4 nM
Selectivity [3]: 150
Selectivity [4]: 58

NC(=O)c1ccc2c(c1)[C@@]13CCCC[C@H]1[C@@H](C2=O)N(CC1CCC1)CC3
Ki [1]: 2.5 nM
Ki [2]: 2.7 nM
Selectivity [3]: 19
Selectivity [4]: 20

O=C1c2ccc(O)cc2[C@@]23CCCC[C@H]2[C@@H]1N(C[C@@H]1CCCO1)CC3
Ki [1]: 0.38 nM
Ki [2]: 0.18 nM
Selectivity [3]: 5.6
Selectivity [4]: 2.6

O=C(O)c1ccc2c(c1)[C@@]13CCCC[C@H]1[C@@H](C2=O)N(CC1CCC1)CC3
Ki [1]: 28 nM
Ki [2]: 59 nM
Selectivity [3]: 14
Selectivity [4]: 29

Nc1ccc2c(c1)[C@@]13CCCC[C@H]1[C@@H](C2=O)N(CC1CCC1)CC3
Ki [1]: 23 nM
Ki [2]: 4.7 nM
Selectivity [3]: 130
Selectivity [4]: 26

O=C1c2ccc(O)cc2[C@@]23CCCC[C@H]2[C@@H]1N(CC1CC1)CC3
Ki [1]: 240 nM
Ki [2]: 24 nM
Selectivity [3]: 6
Selectivity [4]: 0.6

CN1CC[C@]23CCCC[C@H]2[C@H]1Cc1ccc(-c2nnn[nH]2)cc13
Ki [1]: 380 nM
Ki [2]: 380 nM

CN1CC[C@]23CCCC[C@H]2[C@H]1Cc1ccc(C#N)cc13
Ki [1]: 20 nM
Ki [2]: 200 nM
Selectivity [3]: > 5
Selectivity [4]: > 500

COc1ccc2c(c1)[C@@]13CCCC[C@H]1[C@H](NCC3)C2=O
Ki [1]: 110 nM
Ki [2]: 390 nM
Selectivity [3]: 0.04
Selectivity [4]: 0.14

NC(=O)c1ccc2c(c1)[C@@]13CCCC[C@H]1[C@@H](C2)N(CC1CCC1)CC3
Ki [2]: 0.087 nM

C#CCOc1ccc2c(c1)[C@@]13CCCC[C@H]1[C@@H](C2=O)N(CC#C)CC3
Ki [1]: 710 nM
Ki [2]: 500 nM
Selectivity [3]: > 20
Selectivity [4]: > 14

Nc1ccc2c(c1)[C@@]13CCCC[C@H]1[C@@H](C2)N(CC1CC1)CC3
Ki [1]: 1.3 nM
Ki [2]: 0.18 nM
Selectivity [3]: 830
Selectivity [4]: 120

CN1CC[C@]23CCCC[C@H]2[C@H]1Cc1ccc(CN)cc13
Ki [1]: 66 nM
Ki [2]: 120 nM
Selectivity [3]: > 21
Selectivity [4]: > 38

CN1CC[C@]23CCCC[C@H]2[C@H]1Cc1ccc(C(N)=O)cc13
Ki [1]: 0.073 nM
Ki [2]: 3.9 nM
Selectivity [3]: 3.3
Selectivity [4]: 180

O=C1c2ccc(-c3nnn[nH]3)cc2[C@@]23CCCC[C@H]2[C@@H]1N(CC1CCC1)CC3
Ki [1]: 230 nM
Ki [2]: 360 nM

NC(=O)c1ccc2c(c1)[C@@]13CCCC[C@H]1[C@@H](C2)N(CC1CC1)CC3
Ki [1]: 0.059 nM
Ki [2]: 0.18 nM
Selectivity [3]: 5.6
Selectivity [4]: 17
